From patent publication US10065948B2, “Histone deacetylase inhibitors and compositions and methods of use thereof” (CHDI Foundation, Inc., priority 2014, dated 2018)

Experiments:
[1] = biological target: Histone Deacetylase 4 (HDAC4) catalytic domain (Homo sapiens (Human), UniProt P56524); test: Biochemical HDAC inhibition assay, fluorogenic substrate Boc-Lys(Tfa)-AMC
Summary of the method: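 Human HDAC4 catalytic domain (aa 648-1032, C-terminal His6) at 0.2 μg/mL working solution was tested against a 16-point compound dilution series in Tris buffer pH 8.0 for 15 min at 37 °C. Substrate Boc-Lys(Tfa)-AMC was prepared at 50 μM (5×). The reaction was stopped with trypsin plus reference inhibitor for 1 h at 37 °C, and AMC fluorescence was read at Ex 355/Em 460 nm.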

[2] = tested on: cellular histone deacetylase enzymatic activity in Jurkat E6-1 cells; test: Inhibition of cellular HDAC activity, Boc-Lys(Tfa)-AMC substrate (Cell Lys-TFA); format: cell-based; conditions: Homo sapiens, Jurkat E6.1, Lys-TFA substrate
Summary of the method: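 Jurkat E6-1 cells (75,000/well) were treated with a 16-point compound dilution for 2 h at 37 °C, then exposed to Boc-Lys(Tfa)-AMC for 3 h. Lysis buffer containing trypsin was added overnight (15-16 h), and AMC fluorescence was read at Ex 355/Em 460 nm.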

[3] = tested on: cellular histone deacetylase activity (Lys-Ac); test: Inhibition of cellular HDAC activity (Cell Lys-Ac); format: cell-based; conditions: Lys-Ac substrate

Sequence of Histone Deacetylase 4 (HDAC4) catalytic domain (P56524 648-1032): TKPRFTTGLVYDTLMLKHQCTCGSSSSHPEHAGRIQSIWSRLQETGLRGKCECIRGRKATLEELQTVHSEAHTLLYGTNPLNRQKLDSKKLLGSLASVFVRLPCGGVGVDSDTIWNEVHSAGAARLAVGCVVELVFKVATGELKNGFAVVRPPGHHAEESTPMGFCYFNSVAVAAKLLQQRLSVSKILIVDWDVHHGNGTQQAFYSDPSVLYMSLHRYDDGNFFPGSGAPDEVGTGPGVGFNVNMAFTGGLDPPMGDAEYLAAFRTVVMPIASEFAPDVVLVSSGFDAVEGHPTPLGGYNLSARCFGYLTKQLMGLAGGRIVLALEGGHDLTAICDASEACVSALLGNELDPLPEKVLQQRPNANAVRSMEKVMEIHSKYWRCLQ

Row | IC50 [1] [µM] | IC50 [2] [µM] | IC50 [3] [µM] | Structure (SMILES)
1 | 0.048 | 0.125 | > 50 | Cc1c(F)cccc1[C@]1(C(=O)NO)Cc2cnn(C3CC3)c2C1 [Example 58, (S)-1-Cyclopropyl-5-(3-fluoro-2-methylphenyl)-N-hydroxy-1,4,5,6-tetrahydrocyclopenta[c]pyrazole-5-carboxamide]
2 | 0.1 | 0.72 | > 50 | Cc1c(F)cccc1[C@]1(C(=O)NO)CCc2c1cnn2C1CC1 [Example 59, (R)-1-cyclopropyl-4-(3-fluoro-2-methylphenyl)-N-hydroxy-1,4,5,6-tetrahydrocyclopenta[c]pyrazole-4-carboxamide]
3 | 0.49 | 0.038 | > 50 | Cc1c(F)cccc1C1(C(=O)NO)Cc2nc(Cc3cccc(C(F)(F)F)c3)sc2C1 (stereo not drawn) [Example 63, 5-(3-Fluoro-2-methylphenyl)-N-hydroxy-2-(3-(trifluoromethyl)benzyl)-5,6-dihydro-4H-cyclopenta[d]thiazole-5-carboxamide]
4 | 0.24 | 0.12 | > 50 | Cc1c(F)cccc1[C@]1(C(=O)NO)Cc2nc(-c3ccnn3C)sc2C1 [Example 68, (S)-5-(3-Fluoro-2-methylphenyl)-N-hydroxy-2-(1-methyl-1H-pyrazol-5-yl)-5,6-dihydro-4H-cyclopenta[d]thiazole-5-carboxamide]
5 | 0.044 | 0.035 | > 50 | Cc1c(F)cccc1[C@@]1(C(=O)NO)Cc2nc(-c3ccnn3C)sc2C1 [Example 69, (R)-5-(3-Fluoro-2-methylphenyl)-N-hydroxy-2-(1-methyl-1H-pyrazol-5-yl)-5,6-dihydro-4H-cyclopenta[d]thiazole-5-carboxamide]
6 | 0.122 | 0.079 | > 50 | Cc1cc(-c2nc3c(s2)C[C@@](C(=O)NO)(c2cccc(F)c2C)C3)n(C)n1 [Example 70, (R)-2-(1,3-Dimethyl-1H-pyrazol-5-yl)-5-(3-fluoro-2-methylphenyl)-N-hydroxy-5,6-dihydro-4H-cyclopenta[d]thiazole-5-carboxamide]
7 | 0.095 | 0.056 | > 50 | COc1ccc(-c2nc3c(s2)C[C@@](C(=O)NO)(c2cccc(F)c2C)C3)nc1 [Example 71, (R)-5-(3-Fluoro-2-methylphenyl)-N-hydroxy-2-(5-methoxypyridin-2-yl)-5,6-dihydro-4H-cyclopenta[d]thiazole-5-carboxamide]
8 | 0.143 | 0.63 | > 50 | Cc1ccccc1-c1nc2c(s1)[C@](C(=O)NO)(c1cccc(F)c1C)CC2 [Example 73, (S)-6-(3-Fluoro-2-methylphenyl)-N-hydroxy-2-(o-tolyl)-5,6-dihydro-4H-cyclopenta[d]thiazole-6-carboxamide]
9 | 0.12 | 0.5 | > 50 | Cc1c(F)cccc1[C@]1(C(=O)NO)CCc2nc(-c3ccc(F)cc3)sc21 [Example 78, (S)-6-(3-Fluoro-2-methylphenyl)-2-(4-fluorophenyl)-N-hydroxy-5,6-dihydro-4H-cyclopenta[d]thiazole-6-carboxamide]
10 | 0.053 | 0.026 | 36.5 | Cc1c(F)cccc1[C@]1(C(=O)NO)Cc2nn(C)c(-c3ccc(F)cc3)c2C1 [Example 79, (R)-5-(3-Fluoro-2-methylphenyl)-3-(4-fluorophenyl)-N-hydroxy-2-methyl-2,4,5,6-tetrahydrocyclopenta[c]pyrazole-5-carboxamide]
11 | 0.11 | 1.8 | > 50 | Cc1c(F)cccc1C1(C(=O)NO)Cc2ccccc2C1 [Example 82, 2-(3-Fluoro-2-methylphenyl)-N-hydroxy-2,3-dihydro-1H-indene-2-carboxamide]
12 | 1.3 | 0.49 | > 50 | Cc1c(F)cccc1C1(C(=O)NO)CCc2cnc(C3CC3)nc2CC1 (stereo not drawn) [Example 83, 2-Cyclopropyl-7-(3-fluoro-2-methylphenyl)-N-hydroxy-6,7,8,9-tetrahydro-5H-cyclohepta[d]pyrimidine-7-carboxamide]
13 | 8.2 | 46.7 | > 50 | O=C(NO)C1(c2ccccc2)CCc2cn(CC(F)(F)F)nc2CC1 (stereo not drawn) [Example 86, N-Hydroxy-6-phenyl-2-(2,2,2-trifluoroethyl)-2,4,5,6,7,8-hexahydrocyclohepta[c]pyrazole-6-carboxamide]
14 | 0.28 | 0.46 | > 50 | Cc1cc(C)nc(-n2cc3c(n2)C[C@](C(=O)NO)(c2cccc(F)c2C)C3)n1 [Example 91, (S)-2-(4,6-Dimethylpyrimidin-2-yl)-5-(3-fluoro-2-methylphenyl)-N-hydroxy-2,4,5,6-tetrahydrocyclopenta[c]pyrazole-5-carboxamide]
15 | 0.048 | 0.027 | > 50 | Cc1c(F)cccc1[C@]1(C(=O)NO)Cc2cnn(Cc3ccccc3)c2C1 [Example 92, (S)-1-Benzyl-5-(3-fluoro-2-methylphenyl)-N-hydroxy-1,4,5,6-tetrahydrocyclopenta[c]pyrazole-5-carboxamide]
16 | 0.027 | 0.17 | > 50 | Cc1c(F)cccc1[C@]1(C(=O)NO)CCc2c1cnn2Cc1ccccc1 [Example 93, (R)-1-benzyl-4-(3-fluoro-2-methylphenyl)-N-hydroxy-1,4,5,6-tetrahydrocyclopenta[c]pyrazole-4-carboxamide]
17 | 0.82 | 2.78 | > 50 | Cc1c(F)cccc1[C@]1(C(=O)NO)CCc2nn(Cc3ccccc3)cc21 [Example 94, (R)-2-Benzyl-4-(3-fluoro-2-methylphenyl)-N-hydroxy-2,4,5,6-tetrahydrocyclopenta[c]pyrazole-4-carboxamide]
18 | 0.71 | 2.98 | > 50 | Cc1c(F)cccc1[C@]1(C(=O)NO)CCc2nn(Cc3ccccc3F)cc21 [Example 95, (R)-4-(3-fluoro-2-methylphenyl)-2-(2-fluorobenzyl)-N-hydroxy-2,4,5,6-tetrahydrocyclopenta[c]pyrazole-4-carboxamide]
19 | 0.051 | 0.06 | > 50 | Cc1c(F)cccc1[C@@]1(C(=O)NO)Cc2nc(-c3ccc(F)cn3)sc2C1 [Example 96, (R)-5-(3-Fluoro-2-methylphenyl)-N-hydroxy-2-(5-fluoropyridin-2-yl)-5,6-dihydro-4H-cyclopenta[d]thiazole-5-carboxamide]
